Measurements taken from patent publication US9820951B2, “Pulmonary disease treatment and diagnosis based on Arhgef1” (NATIONAL JEWISH HEALTH, A NON-PROFIT ORGANIZATION, priority 2011, dated 2017).

Columns and labels:
[1] = test system: Mmp9; assay: MMP9 activity by gelatin zymography in conditioned media of mouse peritoneal macrophages cultured on fibronectin; assay type: cell-based; settings: for maximal inhibition of fibronectin-induced MMP9 production/activity: both wild type and Arhgef1-deficient macrophages, aspirin up to 20 mM, L-161,982, PTA2 1.56 or 6.25 μM, L-655,240 28 μM
Protocol: (§1) FIG. 5. TP-induced MMP9 production is only partially dependent on COX activity. A) PEMs were cultured on fibronectin for 24 hours with 5% FCS, washed then treated with different concentration of aspirin or 1.6 μM PTXA2 at for an additional 24 hours without FCS. MMP9 activity was determined by zymography from supernatants of wild type (open) or Arhgef1−/− (filled) macrophages. Activity was normalized to activity generated from cells cultured on fibronectin without treatment. B) MMP9 activity in conditioned media from peripheral blood monocytes cultured as described in panel A. Data represents mean±SE (n=3 independent donors).
FIG. 6. The antioxidant mimetic MnTE-2PyP reduces MMP9 activity in macrophages. PEMs were cultured on fibronectin for 24 hours with 5% FCS, washed then treated with MnTE-2PyP at the indicated concentrations for an additional 24 hours without FCS. MMP9 activity was determined by zymography from supernatants of wild type (open) or Arhgef1−/− (filled) macrophages. Activity was normalized to activity generated from cells cultured on fibronectin without treatment.
FIG. 11. Cyclooxygenase activity but not EP4 receptor signaling is required for MMP9 production by murine macrophages cultured on fibronectin. A, representative MMP9 gelatin zymograms of conditioned media from peritoneal macrophages cultured on either plastic (ctl) or FN and treated with increasing concentrations of aspirin (1.25, 5.0, and 20 mM, respectively). Wild type (+/+) and Arhgef1^−/− (−/−) samples from separate zymograms are shown. Molecular weight standards and respective enzymatic activities of MMP9 and MMP2 are shown. B, quantitation of MMP9 activity as determined by densitometric analysis of zymograms in A. MMP 9 activity is shown in arbitrary units and represents n=6 for both wild type (open bars) and Arhgef1^−/− (black bars) samples. The results are compiled from two independent experiments. The data represent the means±S.E. *, p<0.05 Student's two-tailed t test compared with conditioned media from cells cultured on plastic. #, p<0.05 Student's two-tailed test comparing conditioned media from wild type cells to Arhgef1^−/− cells cultured under identical conditions. $, p<0.05 Student's two-tailed t test compared with conditioned media from cells cultured on fibronectin. C, quantitation of MMP9 activity in conditioned media from macrophages cultured on fibronectin in the presence of the EP4 antagonist L161,982 (10 μM). MMP9 activity was normalized to fibronectin response for each genotype. The results are compiled from two independent experiments with wild type (open bars, n=5) and Arhgef1^−/− (black bars, n=5) samples. The data represent the means±S.E. *, p<0.05 Student's two-tailed t test compared with conditioned media from cells cultured on plastic. #, p<0.05 Student's two-tailed t test compared with conditioned media from cells cultured on fibronectin.
FIG. 12. Thromboxane receptor signaling is necessary for fibronectin-induced MMP9 production by macrophages and is attenuated by Arhgef1. A, representative gelatin zymograms of conditioned media from macrophages cultured on plastic (ctl) or FN and treated with 1.56 or 6.25 μM of the thromboxane receptor antagonist PTA2. Wild type (+/+) and Arhgef1^−/− (−/−) samples from separate zymograms are shown. B, quantitation of MMP9 activity as determined by densitometric analysis of zymograms in A. The results are representative of two independent experiments. C, representative zymograms from conditioned media from macrophages cultured on plastic or fibronectin and treated with 28 μM of the thromboxane receptor antagonist L-655,240. D, quantitation of MMP9 activity as determined by densitometric analysis of zymograms in C. The results are compiled from two independent experiments with n=4 for both wild type (open bars) and Arhgef1^−/− (black bars) samples. […]

[2] = test system: MMP9; assay: MMP9 activity by zymography in conditioned media of human peripheral blood monocytes cultured on fibronectin; assay type: cell-based
Protocol: as §1
Tissue-culture 96-well plates (Costar high binding catalogue number 3590) were coated with 10 μg/ml of murine fibronectin (Molecular Innovations, Nori, Minn.; catalogue number MFBN) or human fibronectin (Molecular Innovations; catalogue number HFBN) in DPBS without Ca^2+ or Mg^2+ (Mediatech, Inc., Manassas, Va.) for 2 h at room temperature. […] PGE2 and TXB2 were measured in conditioned medium by ELISA according to the manufacturer's instructions (ElisaTech, Aurora, Colo.). […]
Peripheral blood monocytes were isolated from whole blood of healthy volunteers using protocols approved by the National Jewish Health Human Subjects Institutional Review Board. […] This procedure consistently yields monocyte purities of >80% as assessed by flow cytometry. […]

CCCCC[C@@H](O)/C=C/[C@H]1C[C@H]2C[C@@H]([C@@H]1C/C=C\CCCC(=O)O)C2(C)C (relative stereo) [PTXA2, (18-(1alpha,2beta(Z),3alpha(1E,3S*),5alpha))-7-(3-(3-Hydroxy-1-octenyl)-6,6-dimethylbicyclo(3.1.1)hept-2-yl)-5-heptenoic acid]
maximal inhibition of fibronectin-induced MMP9 production/activity [1]: 80-85% | fibronectin-mediated MMP9 activity (effect in words) ([1]; mouse macrophages, wild type and Arhgef1−/−, 1.6 μM PTXA2, 28 μM L-655,240): virtually ablated fibronectin-mediated MMP9 activity | fibronectin-mediated MMP9 activity (effect in words) ([2]; human peripheral blood monocytes, 1.6 μM PTXA2): virtually ablated fibronectin-mediated MMP9 activity

CC(=O)Oc1ccccc1C(=O)O [aspirin]
maximal inhibition of fibronectin-induced MMP9 production/activity [1]: 70-75% | reduction of MMP9 activity ([1]; mouse peritoneal macrophages on fibronectin, highest aspirin concentration 5 mM, 24 h): 40-50% | reduction of MMP9 activity ([2]; human monocytes on fibronectin, highest aspirin concentration 5 mM, 24 h): 40-50%
